{"source": "patent US20240342138A1", "about": "“MICROTUBULE TARGETING AGENTS” (BPGbio, Inc., priority 2023, published 2024)", "key": {"[1]": {"test_system": "patient-derived organoids (PDOs)", "test": "Viability of patient-derived organoids of multiple tumor types (CellTiter-Glo, 5 days)", "type": "cell-based, human", "description": "PDOs were treated with Compound 1 or controls (vehicle control—0.1% DMSO, positive control—10% DMSO) for 5 days. Viability was assessed using the CellTiter-Glo® assay. IC50 and maximal (max) inhibition values were extrapolated from the viability curves. Exemplars of models deemed to be highly responsive (>60% max inhibition; A), responsive (40-60% max inhibition; B), and non-responsive (<40% max inhibition; C) to Compound 1 are shown. Summary of all models tested (D); NR (No Regression, ambiguous nonlinear regression curves or R2<0.65) and NA (Not Applicable, ambiguous maximum inhibition). Compiled data of N=4 replicates.\nPotency of Compound 1 was evaluated in a panel of patient-derived organoids (PDOs) representative of multiple tumor types.\n• 1. Cryopreserved samples (200-300 mg or more depending on study design) were prepared as described below. • 2. The collected tumors were dissociated manually (using a tumor mincing process previously developed) or using the Gentle MACS Dissociator and human Tumor Dissociation Kit (Miltenyi). After preparation, tumor fragments were cultured in DMEM+10% FBS+1× antibiotic/antimycotic (“anti-anti”) plus 1:500 Primocin antimicrobial agent for up to 7 days before filtering out large fragments (using a 500 μm filter followed by 200 μm filters). • 3. Flow-through was cultured in: Cell-Tak coated low volume flat-bottom 384-well assay plates. • 4. 10× concentrations of test agent (or DMSO as vehicle) was added to media in volumes that will vary depending on culturing conditions. • 5. Each group had quadruplicate wells, including 0.1% DMSO (final as vehicle) and 10% DMSO as positive control. • 6. PBS was plated in the perimeter wells to avoid edge-effect artifacts. • 7. Cells were treated for 5 days and viability read via Cell Titer Glo. Viability was quantitatively assessed via Cell Titer Glo at Day 0 (baseline), Day 6 (baseline), and Day 6 (compound treatment-full dose response). […]"}, "[2]": {"test_system": "colchicine binding site of tubulin", "test": "EBI labeling assay in MIA PaCa2 cells (Western blot)", "type": "cell-based", "conditions": "2 hours compound, then 2 hours 100 μM EBI, FIG. 2, FIG. 3", "protocol": "MIA PaCa2 cells were cultured in DMEM+10% FBS and 1% P/S. Cells were plated at 1.5-2×10^6 in 60 mm dishes. For drug treatments, cells were treated the day after plating with 0.1% DMSO or the compounds tested at the concentrations indicated in FIG. 2 for 2 hours.\n• Cells were treated with compounds for 2 hours at 37°, 5% CO2 (in the cell culture incubator), and then for an additional 2 hours with 100 μM EBI (with compounds present) under the same conditions. • Cells were then harvested with Trypsin and pelleted at 500 g for 3 minutes. • Cells were rinsed in 1 mL PBS and transferred to clean epi tubes. […] BCA assay plates were incubated for 15 minutes in the 37-degree incubator in the outer molecular lab. • After protein normalization (including addition of reducing Laemmli buffer from a 6× stock) samples were boiled at 95 degrees for 3 minutes and frozen for subsequent Western Blotting.\nSignificance in difference of treated MIA PaCa-2 cells to 0.1% DMSO treated cells were tested by Student t test (* p<0.05; ** p<0.01; *** p<0.001)."}, "[3]": {"test_system": "CTG-1520 PDX tumors", "test": "CTG-1520 PDX tumor growth in nude mice", "type": "in vivo", "description": "FIG. 10A-10C show potency of Compound 1 in a patient-derived organoid model of taxane resistance. A) Overview of study design. B) CTG-1520 was implanted subcutaneously in nude mice and tumors were allowed to grow to a volume of 210 mm^3 followed by randomization of animals into three (3) groups (vehicle control, 75 mg/kg, 150 mg/kg Compound 1) with 12 animals per group. A Compound 1 solid dispersion was prepared prior to each dosing and administered by oral gavage two times a day (BID). Mean tumor volume of each group over time and the growth of tumor in each individual animal was graphed. For each individual animal of vehicle group tumor growth inhibition (TGI) % was calculated based on the tumor growth inhibition of individual tumor at each given day of the study compared to the average of the group for that given day of the study. P-values were calculated using two-tailed distribution and two-sample equal variance (homoscedastic) for each group treated with Compound 1 for each given day of the study in reference to vehicle control. ns p>0.05; *p≤0.05; **p≤0.01. C) Body weight of each individual animal was measured on days 0, 3, 6, 10, 13, and 17 and graphed using Graphpad Prism.\nIn a next step, the ability of Compound 1 to inhibit the growth of CTG-1520 PDX in nude mice was assessed. CTG-1520 was implanted subcutaneously in nude mice and tumors were allowed to grow to a volume of 210 mm^3 followed by randomization of animals into three (3) groups (vehicle control; 75 mg/kg, and 150 mg/kg Compound 1) with 12 animals per group (see FIG. 10A). A Compound 1 solid dispersion was administered by oral gavage two times a day (BID). All animals, except one (1) from the vehicle control group, survived through the study (17 days). One (1) animal from the vehicle control group reached the endpoint of 2000 mm^3 prior to day 17 and was eliminated from all calculations."}, "[4]": {"test_system": "T98G cells", "test": "In vitro potency in glioblastoma cells, ATPlite 1Step (NTRC Oncolines)", "type": "cell-based", "conditions": "Homo sapiens, FIG. 14A, read-out: In vitro potency (anti-cancer activity)", "from_the_text": "(§1) FIG. 14A-14E show the efficacy of Compound 1 in glioblastoma cell lines in vitro and in a glioblastoma rat model (C6). A) In vitro potency of Compound 1 in four different glioblastoma cell lines as evaluated by Realtime-Glo™ assay (C6, and U87 cells) or ATPlite 1Step™ Perkin Elmer (performed by NTRC Oncolines; T98G and A-172 cells). B) Study design overview: C6 rat glioma cells (3×10^5) were implanted into the right entorhinal cortex/subiculum region of male Sprague Dawley rats and tumor burden was assessed 14 days post inoculation using MRI and animals randomized into […] (4) groups (vehicle control, 5 mg/kg, 10 mg/kg, and 20 mg/kg Compound 1) with 4 animals per group. […] C) Body weights were measured every two days. […]\n(§2) Glioblastoma (GBM) is the most common and highly malignant form of primary brain tumor with a poor prognosis despite advances in treatments. […] Accordingly, the in vitro potency of Compound 1 was examined in four different glioblastoma cell lines as evaluated by Realtime-Glo™ assay (C6, and U87 cells) or ATPlite 1Step™ Perkin Elmer (performed by NTRC Oncolines; T98G and A-172 cells). […] Therefore, the in vivo tumor activity of Compound 1 was next assessed in Sprague Dawley rats implanted with C6 rat glioma cells into the right entorhinal cortex/subiculum region (AP: −7 mm; ML: 4.5 mm, DV: 5 mm). […]"}, "[5]": {"test_system": "A-172 cells", "test": "In vitro potency in glioblastoma cells, ATPlite 1Step (NTRC Oncolines)", "type": "cell-based", "conditions": "Homo sapiens, FIG. 14A, read-out: In vitro potency (anti-cancer activity)", "from_the_text": "as §1, §2"}}}
{"smiles": "COc1ccccc1-c1nc(CNC(=O)c2ccccc2OC(F)F)n[nH]1", "note": "[Compound 1, 2-(difluoromethoxy)-N-[[5-(2-methoxyphenyl)-1H-1,2,4-triazol-3-yl]methyl]benzamide]", "values": [{"measurement": "Response of PDO models (max inhibition class)", "setting": "[1]; Glioblastoma multiforme, SCLC, ovarian, endometrial, breast, prostate cancer, renal cell carcinoma", "value": "responsive (responsive (40-60% max inhibition))"}, {"measurement": "Response of PDO models (max inhibition class)", "setting": "[1]; colorectal cancer (FIG. 7C)", "value": "non-responsive (non-responsive (<40% max inhibition))"}, {"measurement": "Response of PDO models (max inhibition class)", "setting": "[1]; endometrial cancer, SCLC, sarcoma, breast cancer, NSCLC, ovarian cancer", "value": "highly responsive (highly responsive (>60% max inhibition))"}, {"measurement": "Formation of EBI:β-tubulin adducts", "setting": "[2]", "value": "inhibited the formation of EBI (N,N′-ethylene-bis(iodoacetamide)):β-tubulin adducts"}, {"measurement": "Tumor volume relative to vehicle control", "setting": "[3]; 75 mg/kg BID oral gavage, 17 days", "value": "reduced tumor volume relative to the vehicle control, but to a lesser extent than the 150 mg/kg dose"}, {"measurement": "Tumor growth inhibition", "setting": "[3]; 150 mg/kg BID oral gavage, 17 days", "value": "significant tumor growth inhibition"}, {"measurement": "Body weight", "setting": "[3]; 75 and 150 mg/kg BID, FIG. 10C", "value": "No body weight loss"}, {"measurement": "IC50", "setting": "[4]", "value": 39, "unit": "nM"}, {"measurement": "IC50", "setting": "[5]", "value": 48, "unit": "nM"}]}
